# Assay results: US6818654B2, “Antibacterial compounds” (Abbott Laboratories, priority 2002, dated 2004)
# Columns and labels:
# [1] = tested on: Quinoline-Resistant Streptococcus pneumoniae 7257; experiment: MIC, agar dilution, quinoline-resistant strain (code BB); format: cell-based; conditions: 35-37° C., 20-24 hours
# [2] = target: bacterial protein synthesis; experiment: Translation assay, firefly luciferase reporter system with S30 Streptococcus pneumoniae extract; format: biochemical; conditions: S30 extract from quinoline-succeptable Streptococcus pneumoniae ATCC 46919; luciferase mRNA; read-out: IC50, concentration causing 50% inhibition of bacterial protein synthesis
# Description: Bacterial protein synthesis inhibitory activity of the compounds and the aformentioned commercially-available antibacterials was determined by translation assays performed using the firefly luciferase reporter system described by Murray et al., (2001), “Staphylococcus aureus Cell Extract Transcription-Translation Assay: Firefly Luciferase Reporter System for Evaluating Protein Translation Inhibitors,” Antimicrob. Agents Chemother. 45(6): 1900-1904, replacing the Staphylococcus aureus S30 extract described therein with S30 Streptococcus pneumoniae extract from quinoline-succeptable Streptococcus pneumoniae ATCC 46919, and replacing plasmid coding for the luciferase gene with mRNA (encoding produced by in vitro transcription from the plasmid pAS10rbs3) which encoded the luciferase gene with an upstream Streptococcus pneumoniae promoter and Shine-Dalgarno site.
# [3] = tested on: Quinoline-Succeptable Streptococcus pneumoniae ATCC 6303; experiment: MIC, agar dilution, quinoline-susceptible strain (code AA); format: cell-based; conditions: ATCC6303, 35-37° C., 20-24 hours
# Excerpt: Antibacterial activity of the compounds […] Committee for Clinical Laboratory Standards (1997), “Methods for dilution antimicrobial susceptibility tests for bacteria that grow aerobically,” approved standard M7-A4 (Wayne, Pa., USA). All strains tested were from the Abbott Laboratories culture collection and were either clinical isolates or reference strains obtained from the American Type Culture Collection (Manassas, Va., USA).
Compound,MIC [1] [µg/mL],IC50 [2] [µM],MIC [3] [µg/mL]
CC(=O)NC[C@H]1CN(c2ccc(N3CCOCC3)c(F)c2)C(=O)O1 [Linezolid],0.5,~3,2
CCn1cc(C(=O)O)c(=O)c2cc(F)c(N3CCNCC3)cc21 [Norfloxacin],32,,1
N[C@@H]1[C@H]2CN(c3nc4c(cc3F)c(=O)c(C(=O)O)cn4-c3ccc(F)cc3F)C[C@@H]12 [Trovafloxacin],4,,0.06
